Data published in patent EP2628482A1, “Rho kinase inhiitors for use in the treatment of neuroblastoma” (Academisch Medisch Centrum, priority 2012, dated 2013).
Where a name gives a salt, the structure may show the parent alone.

Legend:
[1] = system: neuroblastoma cell lines (SKNBE, IMR, SJNB8, SHEP2, SKNAS, SY5Y); assay: MTT assay (cell viability); format: cell-based; settings: for cell viability: all 6 neuroblastoma cell lines, 72 hours, 3 to 200 µM; for IC50: range over 6 neuroblastoma cell lines, 72 hours treatment, dose efficacy curves, read-out: IC50 (concentration drug needed for 50% cell viability reduction)
Description: To determine the sensitivity of the cell lines for the ROCK-inhibitors Y27632 and HA 1077 MTT assays were done. […] The IC50 (concentration drug needed for 50% cell viability reduction) of Y27632 determined by dose efficacy curves varied from 18 to 90 µM.
Cells were plated in a 10-30% confluence in a 96-well plate and treated after 24 hours with Y27632 (=Y27632 dihydrochloride; Tocris; Cat.nr. 1254) and HA1077 (=Fasudil hydrochloride; Tocris; Cat.nr. 0541) in a concentration ranging from 3 to 200 µM. 72 hours after treatment, 10 µl of Thyazolyl blue tetrazolium bromide (MTT, Sigma M2128) was added. After 4 hours of incubation 100 µl of 10% SDS, 0.01 M HCI was added to stop the reaction. The absorbance was measured at 570 nm and 720 nm using a platereader (biotech). The IC50 (concentration drug needed for 50% cell viability reduction) was calculated using concentration vector curves.

[2] = system: neuroblastoma cell lines (IMR32, SJNB8, SKNBE, SY5Y, SHEP2, SKNAS); assay: Light microscopy of phenotypical changes after ROCK inhibitor treatment; format: cell-based; settings: 25µM, 65 hours; cell bodies smaller, more elongated, neurite outgrowths appear
[3] = system: off-target kinases; settings: reported by Aerie Pharmaceuticals; cited from earlier work
[4] = system: SHEP2 cells; assay: Immunofluorescence (actin / tubulin staining); format: cell-based; settings: 50 micromolar, 24 hours of treatment
[5] = system: ROCK; settings: cited from earlier work

| SMILES | cell viability [1] | IC50 [1] [µM] | phenotype of the cells (light microscope) [2] | number of off-target kinases tested at which activity was seen [3] | actin organization (phalloidin staining) [4] | tubulin localization [4] | potency against ROCK [5] |
| --- | --- | --- | --- | --- | --- | --- | --- |
| C[C@@H](N)[C@H]1CC[C@H](C(=O)Nc2ccncc2)CC1 [Y27632, Y27632 dihydrochloride] | decrease in viability | 18 to 90 | more neuronal-like (differentiated) phenotype |  |  |  |  |
| C[C@@H](N)c1ccc(C(=O)Nc2ccnc3[nH]ccc23)cc1 [Y-39983/SNJ-1656/RKI-983] |  |  |  | 25 |  |  |  |
| O=S(=O)(c1cccc2cnccc12)N1CCCNCC1 [HA 1077, Fasudil hydrochloride] | decrease in viability | 15 to 45 | more neuronal-like (differentiated) phenotype |  | structured actin fibres (green) disappear | moves from a nuclear localization towards the cytoplasm |  |
| CN(C)C(C(=O)Nc1ccc2c(=O)[nH]ccc2c1)c1ccsc1 (centres unmarked) [AR-12286] |  |  |  | 5 |  |  | nanomolar potency |
